Results published in patent publication EP0007294A2, “Membrane stabilizing compounds having beta-receptor blocking activity, their preparation, method for treatment of arrhythmic conditions, and pharmaceutical preparations containing same” (priority 1978, dated 1980).

Test system: ouabain-induced arrhythmias
Experiment: Ouabain-induced arrhythmias in anesthetized guinea-pigs
Type: in vivo
Details: animals with antiarrhythmic effect / animals tested; dose 0.3 mg/kg i.v.
Description: Guinea-pigs of either.sex (300-400 g) were anesthetized with urethane 1,4 g/kg i.p. and tracheotomized. ECG, lead II was picked up with needle electrodes and was registered continuously throughout the experiment. Two i.v. catheters were inserted: one for the administration of ouabain, the other for the test solution.
The experimental design for the study of antiarrhythmic activities is schematically shown in the head of Table 2. The arrhythmia was induced by automatic infusion of ouabain, 18 µg/kg/60" every two minutes for twelve minutes and thereafter 9 µg/kg/30" every two minutes throughout the whole experiment and the infusion was not stopped until asystole occurred. As soon as the frequency of ventricular premature beats (VPB) had passed 50 per cent, the test solution was given i.v. (0,2 ml/min) during 2 min. (see head of Table 2).

SMILES	A-A EFFECT IN NUMBER OF ANIMALS
COCCc1ccc(OCC(O)CNCCc2ccccc2)cc1 (stereo not drawn) [Ex. 1]	4/8
COCCc1ccc(OCC(O)CNCCc2ccccc2)c(Br)c1 (stereo not drawn) [EX 3]	5/6

Same assay, conditions: animals with antiarrhythmic effect / animals tested; dose 1.0 mg/kg i.v.

SMILES	A-A EFFECT IN NUMBER OF ANIMALS
COCCc1ccc(OCC(O)CNCCc2ccccc2)cc1 (stereo not drawn) [Ex. 1]	9/9
COCCc1ccc(OCC(O)CNCCc2ccccc2)c(Br)c1 (stereo not drawn) [EX 3]	6/6

Same assay, conditions: animals with antiarrhythmic effect / animals tested; dose 4.0 mg/kg i.v.

SMILES	A-A EFFECT IN NUMBER OF ANIMALS
CCN(CC)CC(=O)Nc1c(C)cccc1C [Lidocaine]	5/5

Same assay, conditions: animals with antiarrhythmic effect / animals tested; dose 12.0 mg/kg i.v.

SMILES	A-A EFFECT IN NUMBER OF ANIMALS
CCN(CC)CC(=O)Nc1c(C)cccc1C [Lidocaine]	5/6

Same assay, conditions: frequency of ventricular premature beats after test solution; dose 0.3 mg/kg i.v.

SMILES	LOWEST FREQUENCY [%]
COCCc1ccc(OCC(O)CNCCc2ccccc2)cc1 (stereo not drawn) [Ex. 1]	38±13
COCCc1ccc(OCC(O)CNCCc2ccccc2)c(Br)c1 (stereo not drawn) [EX 3]	26±7

Same assay, conditions: frequency of ventricular premature beats after test solution; dose 1.0 mg/kg i.v.

SMILES	LOWEST FREQUENCY [%]
COCCc1ccc(OCC(O)CNCCc2ccccc2)cc1 (stereo not drawn) [Ex. 1]	9±4
COCCc1ccc(OCC(O)CNCCc2ccccc2)c(Br)c1 (stereo not drawn) [EX 3]	13±7

Same assay, conditions: frequency of ventricular premature beats after test solution; dose 4.0 mg/kg i.v.

SMILES	LOWEST FREQUENCY [%]
CCN(CC)CC(=O)Nc1c(C)cccc1C [Lidocaine]	10±1

Same assay, conditions: frequency of ventricular premature beats after test solution; dose 12.0 mg/kg i.v.

SMILES	LOWEST FREQUENCY [%]
CCN(CC)CC(=O)Nc1c(C)cccc1C [Lidocaine]	5±3

Same assay, conditions: time of asystole under continued ouabain; dose 0.3 mg/kg i.v.

SMILES	ASYSTOLE [min]
COCCc1ccc(OCC(O)CNCCc2ccccc2)cc1 (stereo not drawn) [Ex. 1]	28 ± 1
COCCc1ccc(OCC(O)CNCCc2ccccc2)c(Br)c1 (stereo not drawn) [EX 3]	34 ± 1

Same assay, conditions: time of asystole under continued ouabain; dose 1.0 mg/kg i.v.

SMILES	ASYSTOLE [min]
COCCc1ccc(OCC(O)CNCCc2ccccc2)cc1 (stereo not drawn) [Ex. 1]	38 ± 4
COCCc1ccc(OCC(O)CNCCc2ccccc2)c(Br)c1 (stereo not drawn) [EX 3]	41 ± 2

Same assay, conditions: time of asystole under continued ouabain; dose 4.0 mg/kg i.v.

SMILES	ASYSTOLE [min]
CCN(CC)CC(=O)Nc1c(C)cccc1C [Lidocaine]	21 ± 1

Same assay, conditions: time of asystole under continued ouabain; dose 12.0 mg/kg i.v.

SMILES	ASYSTOLE [min]
CCN(CC)CC(=O)Nc1c(C)cccc1C [Lidocaine]	30 ± 3

Same assay, conditions: time of ventricular fibrillation under continued ouabain; dose 0.3 mg/kg i.v.

SMILES	V-FIB [min]
COCCc1ccc(OCC(O)CNCCc2ccccc2)cc1 (stereo not drawn) [Ex. 1]	19 ± 1
COCCc1ccc(OCC(O)CNCCc2ccccc2)c(Br)c1 (stereo not drawn) [EX 3]	27 ± 1

Same assay, conditions: time of ventricular fibrillation under continued ouabain; dose 1.0 mg/kg i.v.

SMILES	V-FIB [min]
COCCc1ccc(OCC(O)CNCCc2ccccc2)cc1 (stereo not drawn) [Ex. 1]	31 ± 4
COCCc1ccc(OCC(O)CNCCc2ccccc2)c(Br)c1 (stereo not drawn) [EX 3]	35 ± 2

Same assay, conditions: time of ventricular fibrillation under continued ouabain; dose 4.0 mg/kg i.v.

SMILES	V-FIB [min]
CCN(CC)CC(=O)Nc1c(C)cccc1C [Lidocaine]	15 ± 2

Same assay, conditions: time of ventricular fibrillation under continued ouabain; dose 12.0 mg/kg i.v.

SMILES	V-FIB [min]
CCN(CC)CC(=O)Nc1c(C)cccc1C [Lidocaine]	22 ± 3

Test system: not listed separately
Experiment: Conscious dogs with ligation of a coronary artery according to Harris: ectopics and convulsions
Type: in vivo
Details: dog, in vivo, iv
Text: (§1) Male beagle dogs, 7-13 kg, undergo two days prior to the test a surgical ligation of a coronary artery. On the day of the test the conscious dog is secured in a canvas sling in a standing position and given increasing doses of the test compounds by intravenous administration. ECG, blood pressure etc are monitored and attention is paid to all CNS-effects. The dogs have almost 100 percent of ectopics prior to administration of the compound to be tested. Effects of the test drug on the frequency of ectopics are calculated from ECG. The accumulative end doses giving 50% and 90% reduction of ectopics as well as the ED50 values which give convulsions (side-effect) are measured and given below in Table 3. The value for convulsions is a mean value for 3-5 dogs.
(§2) x) The value given is the final value in a series of doses 0.5 + 1 + 2 + 4 + 8 mg/kg i.v. giving 50% reduction of ectopics. 30 min interval between doses.
(§3) Table 3: Antiarrythmic effect and CNS-effects of four β-receptor blockers, a membrane stabilizer, and ten new compounds with combined β-blocking and membrane stabilizing effect.

SMILES	TD50 [mg/kg]
COCc1ccc(OCC(O)CNCCCCc2ccccc2)cc1 (stereo not drawn) [Ex. 8, 3-[4-phenylbutylamino)-1-(4-methoxymethylphenoxy)-propanol-2]	8

Test system: ectopics
Experiment: as above
Type: in vivo
Details: Canis lupus familiaris; iv.; accumulative end dose giving 50% reduction of ectopics; read-out: Conscious dog Harris ligation Ectopics -50%
Text: as §1, §2, §3

SMILES	ED50 [mg/kg]
COCc1ccc(OCC(O)CNCCCCc2ccccc2)cc1 (stereo not drawn) [Ex. 8, 3-[4-phenylbutylamino)-1-(4-methoxymethylphenoxy)-propanol-2]	4

Same assay, conditions: Canis lupus familiaris; iv.; accumulative end dose giving 90% reduction of ectopics; read-out: Conscious dog Harris ligation Ectopics -90%

SMILES	ED90 [mg/kg]
COCc1ccc(OCC(O)CNCCCCc2ccccc2)cc1 (stereo not drawn) [Ex. 8, 3-[4-phenylbutylamino)-1-(4-methoxymethylphenoxy)-propanol-2]	> 8

Test system: chloroform-induced ventricular arrhythmias
Experiment: Chloroform-induced ventricular arrhythmias (fibrillation) in mice, intraperitoneal dose
Details: dose 100 mg/kg intraperitoneal, 10 treated
Text: Mice were given an intraperitoneal dose of the test compound. Twenty minutes after dose, they were suffocated in chloroform vapor.- When the animals stopped breathing, the chest was opened to inspect for fibrillation. If the heart was not fibrillating, it was prodded.
Signs of CNS toxicity were noted during the 20-minute interval between dosing and challenge.
"Protected" means number of animals protected against CHC13- induced ventricular fibrillation.

SMILES	Number of Animals Dead
CCN(CC)CC(=O)Nc1c(C)cccc1C [Lidocaine]	0
COC(=O)NCCc1ccc(OCC(O)CNC(C)C)cc1 (stereo not drawn) [Pamatolol]	0
COCCc1ccc(OCC(O)CNCCc2ccccc2)cc1 (stereo not drawn) [Ex. 1]	0

Same assay, conditions: dose 100 mg/kg intraperitoneal, 10 treated; protected against CHCl3-induced ventricular fibrillation

SMILES	Number of Animals Protected
CCN(CC)CC(=O)Nc1c(C)cccc1C [Lidocaine]	5
COC(=O)NCCc1ccc(OCC(O)CNC(C)C)cc1 (stereo not drawn) [Pamatolol]	5
COCCc1ccc(OCC(O)CNCCc2ccccc2)cc1 (stereo not drawn) [Ex. 1]	9

Same assay, conditions: mouse, in vivo, ip, 100 mg/kg

SMILES	Number of Animals Convulsive	Number of Animals LRR
CCN(CC)CC(=O)Nc1c(C)cccc1C [Lidocaine]	10	10
COC(=O)NCCc1ccc(OCC(O)CNC(C)C)cc1 (stereo not drawn) [Pamatolol]	0	0
COCCc1ccc(OCC(O)CNCCc2ccccc2)cc1 (stereo not drawn) [Ex. 1]	1	0
